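Exposure lasted 48 hours, with cells grown in 96-well plates and compounds tested at five concentrations. GI50 is the concentration that inhibits growth by half. TGI denotes the concentration required for complete inhibition of growth.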
Experiments:
Assay in all cases: inhibition of tumour cell growth, NCI panel, 48 h
[1] = tested on: NCI-H460 lung
[2] = tested on: NCI-H522 lung
[3] = tested on: NCI/ADR-RES ovarian
[4] = tested on: OVCAR-3 ovarian
[5] = tested on: OVCAR-4 ovarian
[6] = tested on: OVCAR-5 ovarian
[7] = tested on: OVCAR-8 ovarian
[8] = tested on: PC-3 prostate
[9] = tested on: RPMI-8226 leukemia
[10] = tested on: RXF 393 renal
[11] = tested on: SF-268 CNS
[12] = tested on: SF-295 CNS
[13] = tested on: SF-539 CNS
[14] = tested on: SK-MEL-2 melanoma
[15] = tested on: SK-MEL-28 melanoma
[16] = tested on: SK-MEL-5 melanoma
[17] = tested on: SK-OV-3 ovarian
[18] = tested on: SN12C renal
[19] = tested on: SNB-19 CNS
[20] = tested on: SNB-75 CNS
[21] = tested on: SR leukemia
[22] = tested on: SW-620 colon
[23] = tested on: T-47D breast
[24] = tested on: TK-10 renal
[25] = tested on: U251 CNS
[26] = tested on: UACC-257 melanoma
[27] = tested on: UACC-62 melanoma
[28] = tested on: UO-31 renal

What does the source list for `CC(=O)Nc1ccc(C(=O)CCl)cc1`?
TGI [1]: 26 µM; GI50 [2]: 2.06 µM; TGI [2]: 4.17 µM; GI50 [3]: 14.7 µM; TGI [3]: 43.5 µM; GI50 [4]: 2.55 µM; TGI [4]: 5.82 µM; GI50 [5]: 2.07 µM; TGI [5]: 4.06 µM; GI50 [6]: 12.2 µM; TGI [6]: 26.1 µM; GI50 [7]: 7.56 µM; TGI [7]: 24.2 µM; GI50 [8]: 10 µM; TGI [8]: 22.3 µM; GI50 [9]: 2.95 µM; TGI [9]: 10 µM; GI50 [10]: 3.41 µM; TGI [10]: 11.6 µM; GI50 [11]: 13.9 µM; TGI [11]: 29.5 µM; GI50 [12]: 16 µM; TGI [12]: 33.7 µM; GI50 [13]: 3.63 µM; TGI [13]: 14.7 µM; GI50 [14]: 13.3 µM; TGI [14]: 27.8 µM; GI50 [15]: 2.49 µM; TGI [15]: 7.54 µM; GI50 [16]: 15.9 µM; TGI [16]: 31 µM; GI50 [17]: 15.1 µM; TGI [17]: 28.3 µM; GI50 [18]: 5.35 µM; TGI [18]: 19.2 µM; GI50 [19]: 17.2 µM; TGI [19]: 45.1 µM; GI50 [20]: 3.46 µM; TGI [20]: 16 µM; GI50 [21]: 2.63 µM; TGI [21]: 7.33 µM; GI50 [22]: 1.73 µM; TGI [22]: 3.38 µM; GI50 [23]: 2.68 µM; TGI [23]: 7.33 µM; GI50 [24]: 2.82 µM; TGI [24]: 7.71 µM; GI50 [25]: 12.4 µM; TGI [25]: 25.1 µM; GI50 [26]: 10.9 µM; TGI [26]: 23.3 µM; GI50 [27]: 8.3 µM; TGI [27]: 21.6 µM; GI50 [28]: 1.71 µM; TGI [28]: 3.26 µM
